The molecules below were run against human Nav1.8 (Homo sapiens (Human), UniProt Q9Y5Y9) (assay: Nav1.8 Qube® Assay (automated 384-well patch-clamp)). Conditions: human Nav1.8 channels stably expressed in HEK 293 cells.
Type: cell-based
Source text: Qube® Assay Experimental Procedure

human Nav1.8, sequence (Q9Y5Y9 whole entry): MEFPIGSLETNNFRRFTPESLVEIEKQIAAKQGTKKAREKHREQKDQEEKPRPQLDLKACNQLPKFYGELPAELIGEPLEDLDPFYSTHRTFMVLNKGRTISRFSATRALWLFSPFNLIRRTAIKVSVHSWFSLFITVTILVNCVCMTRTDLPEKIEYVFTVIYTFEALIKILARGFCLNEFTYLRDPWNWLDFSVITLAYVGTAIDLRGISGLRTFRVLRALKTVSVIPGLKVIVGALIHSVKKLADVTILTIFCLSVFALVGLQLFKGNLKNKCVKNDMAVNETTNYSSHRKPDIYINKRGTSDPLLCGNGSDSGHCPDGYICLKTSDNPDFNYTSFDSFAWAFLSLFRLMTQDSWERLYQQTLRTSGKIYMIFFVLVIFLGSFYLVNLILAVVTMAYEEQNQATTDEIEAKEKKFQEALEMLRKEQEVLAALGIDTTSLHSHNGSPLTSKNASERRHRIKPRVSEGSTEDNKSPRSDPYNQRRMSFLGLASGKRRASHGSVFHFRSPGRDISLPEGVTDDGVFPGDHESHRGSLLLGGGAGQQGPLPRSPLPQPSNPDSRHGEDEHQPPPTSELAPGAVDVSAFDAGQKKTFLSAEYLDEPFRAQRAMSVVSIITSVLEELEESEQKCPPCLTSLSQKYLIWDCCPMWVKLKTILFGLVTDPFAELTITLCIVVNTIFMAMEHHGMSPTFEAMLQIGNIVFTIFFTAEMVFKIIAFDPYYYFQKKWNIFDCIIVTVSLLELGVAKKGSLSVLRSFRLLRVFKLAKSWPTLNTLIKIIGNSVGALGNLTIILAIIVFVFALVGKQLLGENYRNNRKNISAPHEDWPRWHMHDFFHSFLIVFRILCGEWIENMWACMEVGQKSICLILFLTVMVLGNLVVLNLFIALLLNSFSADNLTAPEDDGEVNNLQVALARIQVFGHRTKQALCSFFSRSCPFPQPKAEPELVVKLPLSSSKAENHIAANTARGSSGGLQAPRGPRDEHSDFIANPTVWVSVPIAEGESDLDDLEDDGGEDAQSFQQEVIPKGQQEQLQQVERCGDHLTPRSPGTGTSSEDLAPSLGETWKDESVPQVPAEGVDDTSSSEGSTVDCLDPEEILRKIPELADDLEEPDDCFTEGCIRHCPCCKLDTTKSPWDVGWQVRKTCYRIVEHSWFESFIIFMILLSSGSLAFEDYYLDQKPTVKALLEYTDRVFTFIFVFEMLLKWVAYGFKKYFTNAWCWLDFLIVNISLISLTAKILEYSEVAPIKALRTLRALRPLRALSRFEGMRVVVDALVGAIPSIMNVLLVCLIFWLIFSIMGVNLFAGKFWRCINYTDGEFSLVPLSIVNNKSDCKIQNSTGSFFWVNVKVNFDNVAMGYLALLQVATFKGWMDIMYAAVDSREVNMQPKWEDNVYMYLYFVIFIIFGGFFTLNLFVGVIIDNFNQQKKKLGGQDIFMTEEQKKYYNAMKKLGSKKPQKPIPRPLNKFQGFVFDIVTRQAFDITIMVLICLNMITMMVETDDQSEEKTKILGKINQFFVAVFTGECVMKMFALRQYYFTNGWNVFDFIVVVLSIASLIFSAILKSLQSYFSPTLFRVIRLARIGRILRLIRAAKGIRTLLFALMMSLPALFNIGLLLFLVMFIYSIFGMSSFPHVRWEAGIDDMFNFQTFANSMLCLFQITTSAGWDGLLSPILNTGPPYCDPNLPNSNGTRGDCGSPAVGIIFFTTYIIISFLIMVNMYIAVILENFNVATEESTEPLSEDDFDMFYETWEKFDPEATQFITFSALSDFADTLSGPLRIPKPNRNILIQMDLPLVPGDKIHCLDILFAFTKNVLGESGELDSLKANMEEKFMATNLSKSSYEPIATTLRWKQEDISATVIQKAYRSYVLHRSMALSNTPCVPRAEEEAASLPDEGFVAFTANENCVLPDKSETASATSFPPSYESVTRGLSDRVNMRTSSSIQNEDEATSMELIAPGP

| Structure (SMILES) | IC50 [nM] |
| --- | --- |
| O=C1NC[C@@H](C(=O)NC(c2ccc(F)c(Cl)c2)c2cnn(CC(F)(F)F)c2)O1 (single isomer, unassigned) [Example 59B, (S)-N-((R or S)-(3-chloro-4-fluorophenyl)(1-(2,2,2-trifluoroethyl)-1H-pyrazol-4-yl)methyl)-2-oxooxazolidine-5-carboxamide] | 693 |
| O=C1NC[C@@H](C(=O)NC(c2ccc(Cl)cc2)C23C4C5C6C4C2C6C53)O1 (single isomer, unassigned) [Example 56B, (S)—N—((R or S)-(4-chlorophenyl)(cuban-1-yl)methyl)-2-oxooxazolidine-5-carboxamide] | 289 |
| O=C1NC[C@@H](C(=O)NC(COc2ccc(F)c(Cl)c2)c2ccc(F)c(Cl)c2)O1 (single isomer, unassigned) [Example 8A, (S)—N—((R or S)-2-(3-chloro-4-fluorophenoxy)-1-(3-chloro-4-fluorophenyl)ethyl)-2-oxooxazolidine-5-carboxamide] | 40 |
| O=C1NC[C@@H](C(=O)NC(c2ccc(F)c(Cl)c2F)[C@@H]2CC[C@@H](C(F)(F)F)CO2)O1 (single isomer, unassigned) [Example 9D] | 2420 |
| O=C1NC[C@@H](C(=O)NC(c2ccc(F)c(Cl)c2)C2CCN(CC(F)(F)F)C2)O1 (single isomer, unassigned) [Example 43A, (S)-N-((R or S)-(3-chloro-4-fluorophenyl)((R or S)-1-(2,2,2-trifluoroethyl)pyrrolidin-3-yl)methyl)-2-oxooxazolidine-5-carboxamide] | 1760 |
| O=C1NC[C@@H](C(=O)NC(c2ccc(Cl)cc2)C23CC(C(F)(F)F)(C2)C3)O1 (single isomer, unassigned) [Example 4B, (S)-N-((R or S)-(4-chlorophenyl)(3-(trifluoromethyl)bicyclo[1.1.1]pentan-1-yl)methyl)-2-oxooxazolidine-5-carboxamide] | 312 |
| O=C1NC[C@@H](C(=O)NC(c2ccc(Cl)cc2)c2nc(C(F)(F)F)cs2)O1 (single isomer, unassigned) [Example 12A, (S)-N-((R or S)-(4-chlorophenyl)(4-(trifluoromethyl)thiazol-2-yl)methyl)-2-oxooxazolidine-5-carboxamide] | 16 |
| O=C1NC[C@@H](C(=O)NC(c2ccc(F)c(Cl)c2)c2ccn(C(F)F)n2)O1 (single isomer, unassigned) [Example 60B, (S)-N-((R or S)-(3-chloro-4-fluorophenyl)(1-(difluoromethyl)-1H-pyrazol-3-yl)methyl)-2-oxooxazolidine-5-carboxamide] | 124 |
| CC(C)(C)c1csc(C(NC(=O)[C@@H]2CNC(=O)O2)c2ccc(Cl)cc2)n1 (single isomer, unassigned) [Example 39B, (S)-N-((R or S)-(4-(tert-butyl)thiazol-2-yl)(4-chlorophenyl)methyl)-2-oxooxazolidine-5-carboxamide] | 64 |
| O=C1NC[C@@H](C(=O)NC(c2ccc(F)c(Cl)c2)c2cccc(C(F)(F)F)n2)O1 (single isomer, unassigned) [Example 49B, (S)-N-((R or S)-(3-chloro-4-fluorophenyl)(6-(trifluoromethyl)pyridin-2-yl)methyl)-2-oxooxazolidine-5-carboxamide] | 54 |
| O=C1NC[C@@H](C(=O)NC(c2ccc(F)c(Cl)c2)c2ccc(Cl)cn2)O1 (single isomer, unassigned) [Example 14B, (S)-N-((R or S)-(3-chloro-4-fluorophenyl)(5-chloropyridin-2-yl)methyl)-2-oxooxazolidine-5-carboxamide] | 34 |
| O=C1NC[C@@H](C(=O)NC(c2ccc(Cl)cc2)C23CCC(CC2)C3)O1 (single isomer, unassigned) [Example 3A, (S)-N-((R or S)-bicyclo[2.2.1]heptan-1-yl(4-chlorophenyl)methyl)-2-oxooxazolidine-5-carboxamide] | 133 |
| O=C1NC[C@@H](C(=O)NC(c2ccc(F)c(Cl)c2F)[C@@H]2C[C@@H]3[C@H](C2)C3(F)F)O1 (single isomer, unassigned) [Example 74B, (S)-N-((R or S)-(3-chloro-2,4-difluorophenyl) ((trans)-6,6-difluorobicyclo[3.1.0]hexan-3-yl)methyl)-2-oxooxazolidine-5-carboxamide] | 389 |
| O=C1NC[C@@H](C(=O)NC(c2ccc(Cl)cc2)c2cccc(F)c2F)O1 (single isomer, unassigned) [Example 29A, (S)-N-((R or S)-(4-chlorophenyl)(2,3-difluorophenyl)methyl)-2-oxooxazolidine-5-carboxamide] | 14 |
| O=C1NC[C@@H](C(=O)NC(c2ccc(Cl)cc2)C2CCN(CC(F)(F)F)CC2)O1 (single isomer, unassigned) [Example 42A, (S)-N-((R or S)-(4-chlorophenyl)(1-(2,2,2-trifluoroethyl)piperidin-4-yl)methyl)-2-oxooxazolidine-5-carboxamide] | 936 |
| O=C1NC[C@@H](C(=O)NC(CCc2ccc(Cl)cc2)c2ccc(F)c(Cl)c2F)O1 (single isomer, unassigned) [Example 65A, (S)—N—((R or S)-1-(3-chloro-2,4-difluorophenyl)-3-(4-chlorophenyl)propyl)-2-oxooxazolidine-5-carboxamide] | 94 |
| O=C1NC[C@@H](C(=O)NC(c2ccc(Cl)cc2)c2ccc(F)cn2)O1 (single isomer, unassigned) [Example 23B, (S)-N-((R or S)-(4-chlorophenyl)(5-fluoropyridin-2-yl)methyl)-2-oxooxazolidine-5-carboxamide] | 233 |
| O=C1NC[C@@H](C(=O)NC(c2ccc(Cl)cc2)c2coc(C(F)(F)F)n2)O1 (single isomer, unassigned) [Example 18B, (S)-N-((R or S)-(4-chlorophenyl)(2-(trifluoromethyl)oxazol-4-yl)methyl)-2-oxooxazolidine-5-carboxamide] | 272 |
| O=C1NC[C@@H](C(=O)NC(c2ccc(Cl)cc2)c2ccc(Cl)c(C(F)(F)F)n2)O1 (single isomer, unassigned) [Example 2B, (S)—N—((R or S)-(5-chloro-6-(trifluoromethyl)pyridin-2-yl)(4-chlorophenyl)methyl)-2-oxooxazolidine-5-carboxamide] | 30 |

Stronger by IC50, values ahead:

| IC50 [nM] | Structure (SMILES) |
| --- | --- |
| 2.7 | O=C1NC[C@@H](C(=O)NC(c2ccccc2)c2ccc(Cl)c(Cl)c2)O1 (single isomer, unassigned) [Example 25A, (S)-N-((R or S)-(3,4-dichlorophenyl) (phenyl)methyl)-2-oxooxazolidine-5-carboxamide] |
| 0.6 | O=C1NC[C@@H](C(=O)NC(c2ccc(Cl)cc2)c2ccc(Cl)c(C(F)(F)F)n2)O1 (single isomer, unassigned) [Example 2A, (S)—N—((R or S)-(5-chloro-6-(trifluoromethyl)pyridin-2-yl)(4-chlorophenyl)methyl)-2-oxooxazolidine-5-carboxamide] |
| 9.4 | O=C1NC[C@@H](C(=O)NC(c2ccc(Cl)cc2)c2cccc(C3CC3)c2)O1 (single isomer, unassigned) [Example 33B, (S)-N-((R or S)-(4-chlorophenyl)(3-cyclopropylphenyl)methyl)-2-oxooxazolidine-5-carboxamide] |
| 3.8 | O=C1NC[C@@H](C(=O)NC(c2ccc(Cl)cc2)c2ccc(Cl)c(C(F)(F)F)c2)O1 (single isomer, unassigned) [Example 35B, (S)-N-((R or S)-(4-chloro-3-(trifluoromethyl)phenyl)(4-chlorophenyl)methyl)-2-oxooxazolidine-5-carboxamide] |
| 1.6 | O=C1NC[C@@H](C(=O)NC(c2ccc(Cl)cc2)c2ccc(Cl)cc2OC(F)(F)F)O1 (single isomer, unassigned) [Example 47A, (S)-N-((R or S)-(4-chloro-2-(trifluoromethoxy)phenyl)(4-chlorophenyl)methyl)-2-oxooxazolidine-5-carboxamide] |
| 5.3 | O=C1NC[C@@H](C(=O)NC(c2ccc(OC(F)(F)F)c(Cl)c2)c2coc(C(F)(F)F)n2)O1 (single isomer, unassigned) [Example 51A, (S)-N-((R or S)-(3-chloro-4-(trifluoro-methoxy)phenyl)(2-(trifluoromethyl)oxazol-4-yl)methyl)-2-oxooxazolidine-5-carboxamide] |
| 3.3 | O=C1NC[C@@H](C(=O)NC(c2ccc(Cl)cc2)c2ccc(F)c(C(F)F)n2)O1 (single isomer, unassigned) [Example 16B] |
| 1.7 | N#Cc1ccc(C(NC(=O)[C@@H]2CNC(=O)O2)c2cnc(C(F)(F)F)c(Cl)c2)cc1Cl (single isomer, unassigned) [Example 54A, (S)-N-((R or S)-(3-chloro-4-cyano-phenyl)(5-chloro-6-(trifluoromethyl)pyridin-3-yl)methyl)-2-oxooxazolidine-5-carboxamide] |
| 12 | O=C1NC[C@@H](C(=O)NC(c2ccc(Cl)c(C(F)(F)F)n2)C2CCC(F)(F)CC2)O1 (single isomer, unassigned) [Example 63A, (S)-N-((R or S)-(5-chloro-6-(trifluoromethyl)pyridin-2-yl)(4,4-difluoro-cyclohexyl)methyl)-2-oxooxazolidine-5-carboxamide] |
| 4.7 | COc1cc(Cl)ccc1C(NC(=O)[C@@H]1CNC(=O)O1)c1ccc(F)cc1 (single isomer, unassigned) [Example 55B, (S)—N—((R or S)-(4-chloro-2-methoxyphenyl)(4-fluorophenyl)methyl)-2-oxooxazolidine-5-carboxamide] |
| 7.9 | O=C1NC[C@@H](C(=O)NC(c2ccc(OC(F)(F)F)c(Cl)c2)c2ccnc(C(F)(F)F)n2)O1 (single isomer, unassigned) [Example 52A, (S)-N-((R or S)-(3-chloro-4-(trifluoromethoxy)phenyl)(2-(trifluoro-methyl)pyrimidin-4-yl)methyl)-2-oxooxazolidine-5-carboxamide] |
| 11 | O=C1NC[C@@H](C(=O)NC(c2ccc(F)c(Cl)c2F)[C@@H]2C[C@@H]3[C@H](C2)C3(F)F)O1 (single isomer, unassigned) [Example 74A, (S)-N-((R or S)-(3-chloro-2,4-difluorophenyl) ((trans)-6,6-difluorobicyclo[3.1.0]hexan-3-yl)methyl)-2-oxooxazolidine-5-carboxamide] |
